Results on two molecules are retold here after patent US6855719B1, “Imidazo[1,2-A]pyridine and pyrazolo[2,3-A]pyridine derivatives” (AstraZeneca AB, priority 1999, dated 2005).

The target in the experiment is T1, CDK2/Cyclin E (Homo sapiens, UniProt P24941).
T1 construct: The open reading frames of CDK2 and Cyclin E were isolated by reverse transcriptase-PCR; made in house; host or cells: Sf21 (Spodoptera frugiperda) insect cells, baculovirus co-infection; GST-Rb substrate made in E. coli BL21 (DE3) pLysS
In words: in vitro kinase assay (Scintillation Proximity Assay), incorporation of [γ-33-P]-ATP into GST-Rb. The experiment is classed as biochemical. The note with it: CDK2/Cyclin E partially-purified enzyme, GST-Rb substrate, 0.2 μM ATP, 60 minutes room temperature; read-out: CDK2 inhibitory activity IC50. As for the experimental part: The compounds were tested in an in vitro kinase assay in 96 well format using Scintillation Proximity Assay (SPA—obtained from Amersham) for measuring incorporation of [γ-33-P]-Adenosine Triphosphate into a test substrate (GST-Retinoblastoma protein; GST-Rb). In each well was placed the compound to be tested (diluted in DMSO and water to correct concentrations) and in control wells either roscovitine as an inhibitor control or DMSO as a […] control.
Approximately 0.2 μl of CDK2/Cyclin E partially-purified enzyme (amount dependent on enzyme activity) diluted in 25 μl incubation buffer was added to each well then 20 μl of GST-Rb/ATP/ATP33 mixture (containing 0.5 μg GST-Rb and 0.2 μM ATP and 0.14 μCi [γ-33-P]-Adenosine Triphosphate in incubation buffer), and the resulting mixture shaken gently, then incubated at room temperature for 60 minutes. […]
The plates were sealed with Topseal-S plate sealers, left for two hours then spun at 2500 rpm, 1124× g., for 5 minutes. The plates were read on a Topcount for 30 seconds per well. […]
The open reading frames of CDK2 and Cyclin E were isolated by reverse transcriptase-PCR using HeLa cell and activated T cell mRNA as a template and cloned into the insect expression vector pVL1393 (obtained from Invitrogen 1995 catalogue number. V1392-20). […]
(In a scintillation proximity assay essentially only radioactivity close to the scintillant gives light.)

Molecules are shown by their SMILES.

One may read the IC50 as the concentration at which inhibition is half-maximal. `O=S(=O)(c1ccc(Nc2nccc(-c3cnc4ccccn34)n2)cc1)N1COCOC1` [Example 11, 2-[4-(3,5-Dioxapiperidin-1-yl)sulphonylanilino]-4-(imidazo[1,2a]pyrid-3-yl)pyrimidine]: the IC50 was determined as 190 nM.

As to `CCN(CC)CCOc1ccc(Nc2nccc(-c3cnc4ccccn34)n2)cc1` [Example 12, 2-[4-(2-Diethylaminoethoxy)anilino]-4-(imidazo[1,2a]pyrid-3-yl)pyrimidine], the half-maximal inhibitory concentration (IC50) was found to be 170 nM.
